Assay results reported in US9440957B2, “Compounds and compositions for modulating EGFR Activity” (Novartis AG, priority 2012, dated 2016).
Read-outs that look alike come from different tables or passages of the source.

Columns and labels:
[1] = target: human EGFR L858R (NIH/3T3 cells) (Homo sapiens, UniProt P00533, L858R); test: EGFR target modulation in engineered NIH/3T3 cell lines (phospho-EGFR Y1068 AlphaLISA), EGFR L858R; type: cell-based; settings: engineered NIH/3T3 cells, read-out: NIH3T3 IC50 (μM) EGFR (L858R)
Chain of human EGFR L858R (NIH/3T3 cells) (P00533 25-1210 L858R): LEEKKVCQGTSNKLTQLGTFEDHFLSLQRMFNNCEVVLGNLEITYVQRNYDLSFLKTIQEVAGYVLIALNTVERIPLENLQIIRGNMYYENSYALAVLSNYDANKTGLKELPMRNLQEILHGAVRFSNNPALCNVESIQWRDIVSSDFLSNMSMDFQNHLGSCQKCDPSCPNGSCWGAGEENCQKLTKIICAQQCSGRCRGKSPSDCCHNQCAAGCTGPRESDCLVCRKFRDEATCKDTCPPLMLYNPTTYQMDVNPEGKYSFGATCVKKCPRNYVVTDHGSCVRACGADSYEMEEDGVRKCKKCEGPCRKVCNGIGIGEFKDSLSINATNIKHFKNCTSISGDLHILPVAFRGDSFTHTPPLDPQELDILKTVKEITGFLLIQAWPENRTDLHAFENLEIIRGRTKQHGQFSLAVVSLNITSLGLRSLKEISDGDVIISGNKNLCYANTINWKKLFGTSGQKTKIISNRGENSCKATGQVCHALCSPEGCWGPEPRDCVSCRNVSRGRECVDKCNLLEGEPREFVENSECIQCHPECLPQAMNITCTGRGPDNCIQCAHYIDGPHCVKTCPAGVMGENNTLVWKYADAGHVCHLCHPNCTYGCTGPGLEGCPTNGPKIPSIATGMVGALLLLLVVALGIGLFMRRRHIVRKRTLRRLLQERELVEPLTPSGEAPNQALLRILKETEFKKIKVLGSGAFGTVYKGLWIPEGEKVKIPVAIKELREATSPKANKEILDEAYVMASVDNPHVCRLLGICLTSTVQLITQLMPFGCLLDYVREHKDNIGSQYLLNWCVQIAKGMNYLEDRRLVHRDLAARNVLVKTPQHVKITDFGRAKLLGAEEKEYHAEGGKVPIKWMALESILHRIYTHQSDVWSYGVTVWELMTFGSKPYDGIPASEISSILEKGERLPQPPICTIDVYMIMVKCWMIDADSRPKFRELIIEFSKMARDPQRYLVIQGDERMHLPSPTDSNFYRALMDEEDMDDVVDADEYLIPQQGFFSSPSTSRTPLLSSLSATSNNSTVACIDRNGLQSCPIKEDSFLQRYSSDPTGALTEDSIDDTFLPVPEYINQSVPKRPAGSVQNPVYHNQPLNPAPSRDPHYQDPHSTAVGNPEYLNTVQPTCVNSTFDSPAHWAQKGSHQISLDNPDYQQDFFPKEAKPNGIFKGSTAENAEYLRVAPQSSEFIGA
Outline: (§1)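 Engineered NIH/3T3 cells expressing EGFR variants treated 3 h at 37 °C with 12-point 1:3 compound series (top stock 10 μM); only WT cells stimulated with 50 ng/ml EGF for 5 min before lysis. Phospho-Y1068 measured by AlphaLISA with total-EGFR antibody; IC50 from non-linear fitting.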

[2] = target: human EGFR L858R/T790M (NIH/3T3 cells) (Homo sapiens, UniProt P00533, L858R/T790M); test: EGFR target modulation in engineered NIH/3T3 cell lines (phospho-EGFR Y1068 AlphaLISA), EGFR L858R/T790M; type: cell-based; settings: engineered NIH/3T3 cells, read-out: NIH3T3 IC50 (μM) EGFR (L858R/T790M)
Chain of human EGFR L858R/T790M (NIH/3T3 cells) (P00533 25-1210 T790M/L858R): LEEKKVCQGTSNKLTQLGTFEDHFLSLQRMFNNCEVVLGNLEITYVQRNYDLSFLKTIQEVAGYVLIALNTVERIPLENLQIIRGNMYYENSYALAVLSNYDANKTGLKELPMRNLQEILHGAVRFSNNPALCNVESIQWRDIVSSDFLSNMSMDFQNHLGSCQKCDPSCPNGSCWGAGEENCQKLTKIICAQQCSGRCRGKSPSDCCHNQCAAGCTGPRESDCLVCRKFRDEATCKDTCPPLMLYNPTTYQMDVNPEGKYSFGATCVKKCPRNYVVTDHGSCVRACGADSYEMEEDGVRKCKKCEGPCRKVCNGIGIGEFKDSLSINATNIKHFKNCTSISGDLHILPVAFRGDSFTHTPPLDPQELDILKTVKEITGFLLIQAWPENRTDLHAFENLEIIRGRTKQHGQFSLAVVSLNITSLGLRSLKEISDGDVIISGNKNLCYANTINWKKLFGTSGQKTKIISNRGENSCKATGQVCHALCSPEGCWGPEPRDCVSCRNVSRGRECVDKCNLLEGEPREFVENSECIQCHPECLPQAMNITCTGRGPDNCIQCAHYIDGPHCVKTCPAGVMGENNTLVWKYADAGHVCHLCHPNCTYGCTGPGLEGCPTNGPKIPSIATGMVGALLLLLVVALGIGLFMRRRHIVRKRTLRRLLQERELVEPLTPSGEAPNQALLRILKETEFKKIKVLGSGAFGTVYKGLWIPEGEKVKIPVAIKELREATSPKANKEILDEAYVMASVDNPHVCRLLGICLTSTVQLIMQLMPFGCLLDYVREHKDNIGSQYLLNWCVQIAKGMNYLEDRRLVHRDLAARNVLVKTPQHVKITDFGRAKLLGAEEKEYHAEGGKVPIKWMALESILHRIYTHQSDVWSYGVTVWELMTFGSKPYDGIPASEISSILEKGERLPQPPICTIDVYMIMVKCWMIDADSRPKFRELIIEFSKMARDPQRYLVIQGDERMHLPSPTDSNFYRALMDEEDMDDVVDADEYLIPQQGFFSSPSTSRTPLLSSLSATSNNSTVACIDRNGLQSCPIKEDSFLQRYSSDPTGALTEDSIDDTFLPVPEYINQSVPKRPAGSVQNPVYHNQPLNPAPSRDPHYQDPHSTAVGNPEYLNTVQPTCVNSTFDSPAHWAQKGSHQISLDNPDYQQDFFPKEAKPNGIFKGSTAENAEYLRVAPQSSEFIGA
Outline: as §1

HEKn (EGFR WT) = HEKn (EGFR WT) (Homo sapiens, UniProt P00533); test: EGFR target modulation in HEKn (EGFR-WT) cell line (phospho-EGFR Y1173 ELISA); type: cell-based; settings: value outside parentheses
Description: EGFR Target Modulation in HEKn (EGFR-WT) Cell Line Tissue Culture. Human neonatal epithelial keratinocytes (Invitrogen #C-001-5C) were maintained in EpiLife media (Invitrogen #[…]) supplemented with growth factors (Invitrogen #S-001-5). Cells were harvested with 0.05% Trypsin/EDTA (Hyclone #SH30236.01) and quenched with 5% FBS/EpiLife media. […] The serial diluted compounds were transferred to the plate containing cells by using a 50 nl Pin Head device (Perkin Elmer) and the cells were placed back in the incubator for 3 hours. […] Phospho-EGFR (Y1173) ELISA. Solid white high-binding ELISA plates (Greiner #781074) were coated with 5 ug/ml anti-EGFR capture antibody (R&D Systems #AF231) overnight in 50 mM carbonate/bicarbonate pH 9.5 buffer. […] Wash steps were carried out with a Bio-Tek ELx405 SelectTM using 4 cycles of 100 ul TBS-T (20 mM Tris, 137 mM NaCl, 0.05% Tween-20) per well. […] Lysis was allowed to occur for 20 minutes on ice. A 25 ul aliquot was added to each well of the blocked ELISA plate and incubated overnight at 4° C. with gentle shaking. […] After washing, 1:2,000 anti-rabbit-HRP (Cell Signaling #7074) in 0.2% BSA/TBS-T was added and incubated for 1 hour at room temperature. Chemiluminescent detection was carried out with SuperSignal ELISA Pico substrate (ThermoScientific #37069). Signal was read on EnVision plate reader using built-in UltraLUM setting. Data Analysis. Control cells treated with EGF were set to 100% maximum response. […] With these parameters, the IC50's for each compound in each cell line was calculated using non-linear curve fitting analysis.

[3] = target: human EGFR WT (NIH/3T3 cells, EGF-induced) (Homo sapiens, UniProt P00533); test: EGFR target modulation in engineered NIH/3T3 cell lines (phospho-EGFR Y1068 AlphaLISA), EGFR WT; type: cell-based; settings: engineered NIH/3T3 cells, read-out: NIH3T3 IC50 (μM) EGFR (WT)
Outline: as §1

EGFR(L858R/T790M) = target: T1, EGFR(L858R/T790M) (Homo sapiens, UniProt P00533, L858R/T790M); test: EGFR biochemical assay (HTRF), IC50 determinations
T1 construct: purchased from Carna (GST-a.a. 669-1210)
Outline: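 HTRF kinase reaction with biotin-TK peptide at room temperature, quenched with EDTA at 60 min and detected with PT66K/SAXL after 1 h. Without preincubation, enzyme starts the reaction with compound, ATP and peptide present. With preincubation, compound, enzyme and peptide sit at room temperature for a set time before ATP is added.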

H1975 (EGFR L858/T790M) = H1975 (EGFR L858/T790M) (Homo sapiens, UniProt P00533, L858R/T790M); test: EGFR target modulation in H1975 cell line (phospho-EGFR Y1173 ELISA); type: cell-based
Chain of H1975 (EGFR L858/T790M) (P00533 25-1210 T790M/L858R): as above
Description: (§2) EGFR Target Modulation in H1975, H3255 and HCC827 Cell Lines Tissue Culture. Cells were maintained in 10% FBS/RPMI supplemented with 100 μg/ml Penicillin/Streptomycin (Hyclone #SH30236.01). […] The cells were allowed to incubate overnight in a 37° C., 5% CO2 humidified tissue culture incubator. […] The serial diluted compounds were transferred to the plate containing cells by using a 50 nl Pin Head device (Perkin Elmer) and the cells were placed back in the incubator for 3 hours. Phospho-EGFR ([…]) Target Modulation Assay. The media was reduced to 20 ul using a Bio-Tek ELx 405 SelectTM plate washer. […] The plates were shaken at 4° C. for 20 minutes. An aliquot of 25 ul from each well was transferred to pEGFR(Y1173) ELISA plates for analysis. Phospho-EGFR ([…]) ELISA. Solid white high-binding ELISA plates (Greiner #781074) were coated with 5 ug/ml anti-EGFR capture antibody (R&D Systems #AF231) overnight in 50 mM carbonate/bicarbonate pH 9.5 buffer. Plates were blocked with 1% BSA (Sigma #A7030) in PBS for 1 hour at room temperature. Wash steps were carried out with a Bio-Tek ELx405 SelectTM using 4 cycles of 100 ul TBS-T (20 mM Tris, 137 mM NaCl, 0.05% Tween-20) per well. […] Lysis was allowed to occur for 20 minutes on ice. A 25 ul aliquot was added to each well of the blocked ELISA plate and incubated overnight at 4° C. with gentle shaking. […] After washing, 1:2,000 anti-rabbit-HRP (Cell Signaling #7074) in 0.2% BSA/TBS-T was added and incubated for 1 hour at room temperature. Chemiluminescent detection was carried out with SuperSignal ELISA Pico substrate (ThermoScientific #37069). Signal was read on EnVision plate reader using built-in UltraLUM setting. Data Analysis. Control cells treated with EGF were set to 100% maximum response. […] With these parameters, the IC50's for each compound in each cell line was calculated using non-linear curve fitting analysis.

H3255 (EGFR L858R) = H3255 (EGFR L858R) (Homo sapiens, UniProt P00533, L858R); test: EGFR target modulation in H3255 cell line (phospho-EGFR Y1173 ELISA); type: cell-based
Chain of H3255 (EGFR L858R) (P00533 25-1210 L858R): as the sequence (P00533 25-1210 L858R) above
Description: as §2

[4] = EGFR (L858R/T790M) with 90 min pre-incubation, read-out: IC50 (μM) Column B
[5] = EGFR (L858R/T790M) with no pre-incubation, read-out: IC50 (μM) Column A

Structure (SMILES)	IC50 [1]	IC50 [2]	IC50 (HEKn (EGFR WT))	IC50 [3]	IC50 (EGFR(L858R/T790M); [4])	IC50 (EGFR(L858R/T790M); [5])	IC50 (H1975 (EGFR L858/T790M))	IC50 (H3255 (EGFR L858R))
COc1cc(C(=O)Nc2nc3cccc(C)c3n2C2CCCCN(C(=O)/C=C/CN(C)C)C2)ccn1 (centres unmarked) [Example 17-48]	0.005 µM	0.004 µM	380 nM	0.122 µM	< 0.001 µM	0.007 µM	10 nM	7 nM
Cc1cccc2nc(NC(=O)c3cccc(S(C)(=O)=O)c3)n(C3CCCCN(C(=O)/C=C/CN(C)C)C3)c12 (centres unmarked) [Example 17-52]	0.003 µM	< 0.001 µM	320 nM	0.103 µM	< 0.001 µM	0.002 µM	2 nM	5 nM
Cc1cccc2nc(NC(=O)c3cccc(-n4cnnn4)c3)n(C3CCCCN(C(=O)/C=C/CN(C)C)C3)c12 (centres unmarked) [Example 17-53]	0.003 µM	0.002 µM	261 nM	0.058 µM	< 0.001 µM	0.002 µM	2 nM	4 nM
Cc1nccc(C(=O)Nc2nc3cccc(C)c3n2C2CCCCN(C(=O)/C=C/CN(C)C)C2)n1 (centres unmarked) [Example 17-54]	0.022 µM	0.041 µM	4900 nM	0.56 µM	0.005 µM	0.09 µM	78 nM	81 nM
Cc1cccc2nc(NC(=O)c3ccnc(F)c3)n(C3CCCCN(C(=O)/C=C/CN(C)C)C3)c12 (centres unmarked) [Example 17-58]	0.002 µM	0.002 µM	154 nM	0.026 µM	< 0.001 µM	0.005 µM	3 nM	9 nM
Cc1cccc2nc(NC(=O)c3cncc(C(F)(F)F)c3)n([C@@H]3CCCCN(C(=O)/C=C/CN(C)C)C3)c12 [Example 17-67]	0.004 µM	0.001 µM	249 nM	0.05 µM	< 0.001 µM	0.003 µM	2 nM	15 nM
Cc1cncc(C(=O)Nc2nc3cccc(C)c3n2[C@@H]2CCCCN(C(=O)/C=C/CN(C)C)C2)c1 [Example 17-68]	0.002 µM	0.001 µM	203 nM	0.023 µM	< 0.001 µM	0.003 µM	2 nM	8 nM
Cc1cccc2nc(NC(=O)c3cncc(F)c3)n([C@@H]3CCCCN(C(=O)/C=C/CN(C)C)C3)c12 [Example 17-69]	0.001 µM	< 0.001 µM	71 nM	0.02 µM	< 0.001 µM	0.002 µM	1 nM	6 nM

Results, then the molecule that gave them:

IC50 [1]	IC50 [2]	IC50 (HEKn (EGFR WT))	IC50 [3]	IC50 (EGFR(L858R/T790M); [4])	IC50 (EGFR(L858R/T790M); [5])	IC50 (H1975 (EGFR L858/T790M))	IC50 (H3255 (EGFR L858R))	Structure (SMILES)
0.001 µM	< 0.001 µM	185 nM	0.035 µM	< 0.001 µM	< 0.001 µM	< 1 nM	7 nM	Cc1cccc2nc(NC(=O)c3cncc(-n4cccc4)c3)n([C@@H]3CCCCN(C(=O)/C=C/CN(C)C)C3)c12 [Example 17-70]
0.002 µM	0.002 µM	134 nM	0.029 µM	< 0.001 µM	0.002 µM	2 nM	3 nM	COc1cc(C(=O)Nc2nc3cccc(C)c3n2[C@@H]2CCCCN(C(=O)/C=C/CN(C)C)C2)ccn1 [Example 17-71]
0.004 µM	0.001 µM	220 nM	0.063 µM	< 0.001 µM	0.004 µM	3 nM	12 nM	Cc1cc(C(=O)Nc2nc3cccc(C)c3n2[C@@H]2CCCCN(C(=O)/C=C/CN(C)C)C2)cc(C)n1 [Example 17-72]
0.004 µM	0.002 µM	261 nM	0.076 µM	< 0.001 µM	0.003 µM	2 nM	11 nM	Cc1cc(C(=O)Nc2nc3cccc(C)c3n2[C@@H]2CCCCN(C(=O)/C=C/CN(C)C)C2)cc(Cl)n1 [Example 17-74]
0.025 µM	0.007 µM	3140 nM	0.218 µM	< 0.001 µM	0.017 µM	26 nM	85 nM	COc1cc(C(=O)Nc2nc3cccc(C)c3n2[C@@H]2CCCCN(C(=O)/C=C/CN(C)C)C2)cc(Cl)n1 [Example 17-75]
< 0.001 µM	< 0.001 µM	14 nM	0.004 µM	< 0.001 µM	< 0.001 µM	< 1 nM	1 nM	Cc1cccc2nc(NC(=O)c3ccnc(-c4ccccc4)c3)n([C@@H]3CCCCN(C(=O)/C=C/CN(C)C)C3)c12 [Example 17-76]
0.001 µM	0.001 µM	24 nM	0.008 µM	< 0.001 µM	0.003 µM	2 nM	1 nM	Cc1cccc2nc(NC(=O)c3ccc(Cl)nc3)n([C@@H]3CCCCN(C(=O)/C=C/CN(C)C)C3)c12 [Example 17-77]
0.005 µM	0.006 µM	1680 nM	0.152 µM	< 0.001 µM	0.006 µM	134 nM	37 nM	Cc1cccc2nc(NC(=O)c3cnc(Cl)c(Cl)c3)n([C@@H]3CCCCN(C(=O)/C=C/CN(C)C)C3)c12 [Example 17-78]
0.005 µM	0.002 µM	176 nM	0.062 µM	< 0.001 µM	0.005 µM	2 nM	7 nM	COc1cncc(C(=O)Nc2nc3cccc(C)c3n2[C@@H]2CCCCN(C(=O)/C=C/CN(C)C)C2)c1 [Example 17-79]
< 0.001 µM	< 0.001 µM	4 nM	0.002 µM	< 0.001 µM	< 0.001 µM	< 1 nM	< 1 nM	Cc1ccccc1-c1cc(C(=O)Nc2nc3cccc(C)c3n2[C@@H]2CCCCN(C(=O)/C=C/CN(C)C)C2)ccn1 [Example 17-80]
0.003 µM	0.002 µM	162 nM	0.067 µM	< 0.001 µM	0.002 µM	2 nM	4 nM	C=CC(=O)N1CCCC[C@@H](n2c(NC(=O)c3cnnc(C)c3)nc3cccc(C)c32)C1 [Example 17-81]
